Assays:
Test in all cases: Cancer cell growth inhibition, Sulforhodamine B
Type in all cases: cell-based
[1] = test system: HCT116; details: Homo sapiens, HCT-116; HCT116 (colon), 72 hr; Responder Cell Lines
Experimental: (§1) The ability of select compounds to inhibit cell growth in various cancer cell lines are evaluated. […] The cell lines shown in Table 5 have reduced growth by at least 50% at 10 uM or lower over 72 hr treatment in growth media. The cell lines shown in Table 6 have reduced growth by at least 50% with an IC50 greater than 10 uM.
(§2) Six 10-fold compound dilutions are prepared in DMSO (e.g. 10 mM, 1 mM, 100 uM, 10 uM, 1 uM, and 0.1 uM). Single data points are acquired for each concentration. The final concentration of DMSO is 0.1%. The duration of the treatment is 72 hr. Growth inhibition is measured using Sulforhodamine B in a protein staining assay. Activity of the agents is determined by evaluation the following parameters: IC50, GI50, IC10, TGI, LC50, IC90, and GI90 (where these values can be calculated).

[2] = test system: RD; details: Homo sapiens; RD (muscle), 72 hr; Non-Responder Cell Lines with IC50 >10 uM or Not Determined
Experimental: as §1, §2

[3] = test system: MCF7; details: Homo sapiens; MCF7 (breast), 72 hr; Responder Cell Lines
Experimental: as §1, §2

[4] = test system: MIAPACA2; details: Homo sapiens, MIA PaCa-2; MIAPACA2 (pancreas), 72 hr; Non-Responder Cell Lines with IC50 >10 uM or Not Determined
Experimental: as §1, §2

[5] = test system: SKNAS; details: Homo sapiens, SK-N-AS; SKNAS (brain), 72 hr; Non-Responder Cell Lines with IC50 >10 uM or Not Determined
Experimental: as §1, §2

[6] = test system: MDAMB435; details: Homo sapiens, MDA-MB-435; MDAMB435 (skin), 72 hr; Responder Cell Lines
Experimental: as §1, §2

[7] = test system: HEPG2; details: Homo sapiens; HEPG2 (liver), 72 hr; Responder Cell Lines
Experimental: as §1, §2

[8] = test system: OVCAR4; details: Homo sapiens, OVCAR-4; OVCAR4 (ovary), 72 hr; Non-Responder Cell Lines with IC50 >10 uM or Not Determined
Experimental: as §1, §2

[9] = test system: SU-DHL-6; details: Homo sapiens, SU-DHL-6, 72 h, SU-DHL-6 (hematological)
Experimental: as §1, §2

[10] = test system: CALU6; details: Homo sapiens, Calu-6; CALU6 (lung), 72 hr; Non-Responder Cell Lines with IC50 >10 uM or Not Determined
Experimental: as §1, §2

[11] = test system: JIMT1; details: Homo sapiens, JIMT-1; JIMT1 (breast), 72 hr; Responder Cell Lines
Experimental: as §1, §2

[12] = test system: NCIH358M; details: NCI-H358M; NCIH358M (lung), 72 hr; Non-Responder Cell Lines with IC50 >10 uM or Not Determined
Experimental: as §1, §2

[13] = test system: ACHN; details: Homo sapiens; ACHN (kidney), 72 hr; Responder Cell Lines
Experimental: as §1, §2

[14] = test system: K-562; details: Homo sapiens, K562; K-562 (hematological), 72 hr; Responder Cell Lines
Experimental: as §1, §2

[15] = test system: SW620; details: Homo sapiens, SW-620; SW620 (colon), 72 hr; Non-Responder Cell Lines with IC50 >10 uM or Not Determined
Experimental: as §1, §2

[16] = test system: PANC1; details: Homo sapiens, PANC-1; PANC1 (pancreas), 72 hr; Non-Responder Cell Lines with IC50 >10 uM or Not Determined
Experimental: as §1, §2

[17] = test system: COLO205; details: Homo sapiens, COLO 205; COLO205 (colon), 72 hr; Responder Cell Lines
Experimental: as §1, §2

[18] = test system: HT1080; details: Homo sapiens, HT-1080; HT1080 (connective tissue), 72 hr; Responder Cell Lines
Experimental: as §1, §2

[19] = test system: RAMOS; details: Homo sapiens, 72 h, RAMOS (hematological)
Experimental: as §1, §2

[20] = test system: SF268; details: Homo sapiens, SF-268; SF268 (brain), 72 hr; Non-Responder Cell Lines with IC50 >10 uM or Not Determined
Experimental: as §1, §2

[21] = test system: PLCPRF5; details: Homo sapiens, PLC-PRF-5, 72 h, PLCPRF5 (liver)
Experimental: as §1, §2

[22] = test system: SNB75; details: Homo sapiens, SNB-75; SNB75 (brain), 72 hr; Non-Responder Cell Lines with IC50 >10 uM or Not Determined
Experimental: as §1, §2

[23] = test system: CACO2; details: Homo sapiens, Caco-2; CACO2 (colon), 72 hr; Responder Cell Lines
Experimental: as §1, §2

[24] = test system: NCIH292; details: Homo sapiens, NCI-H292; NCIH292 (lung), 72 hr; Non-Responder Cell Lines with IC50 >10 uM or Not Determined
Experimental: as §1, §2

[25] = Non-Responder Cell Lines with IC50 >10 uM or Not Determined

IC50 [1]: < 10 µM | IC50 [2]: > 10 µM | IC50 [3]: < 10 µM | IC50 [4]: > 10 µM | IC50 [5]: > 10 µM | IC50 [6]: < 10 µM | IC50 [7]: < 10 µM | IC50 [8]: > 10 µM | IC50 [9, 25]: > 10 µM | IC50 ([9]; Responder Cell Lines): < 10 µM | IC50 [10]: > 10 µM | IC50 [11]: < 10 µM | IC50 [12]: > 10 µM | IC50 [13]: < 10 µM | IC50 [14]: < 10 µM | IC50 [15]: > 10 µM | IC50 [16]: > 10 µM | IC50 [17]: < 10 µM | IC50 [18]: < 10 µM | IC50 [19, 25]: > 10 µM | IC50 ([19]; Responder Cell Lines): < 10 µM | IC50 [20]: > 10 µM | IC50 [21, 25]: > 10 µM | IC50 ([21]; Responder Cell Lines): < 10 µM | IC50 [22]: > 10 µM | IC50 [23]: < 10 µM | IC50 [24]: > 10 µM
Structure (SMILES): CC(C)(O)c1cc(-c2csc(-c3ccc(C(=O)N4CCC(O)CC4)cc3Cl)c2)ccn1 [Compound 1, (3-chloro-4-(4-(2-(2-hydroxypropan-2-yl)pyridin-4-yl)thiophen-2-yl)phenyl)(4-hydroxypiperidin-1-yl)methanone]

— US20220356170A1, “SREBP INHIBITOR COMPRISING A THIOPHENE CENTRAL RING” (Capulus Therapeutics, LLC, priority 2019, published 2022)
